Data: PMC5560435 (Journal of fluorine chemistry, 2017)
Read-outs that look alike come from different tables or passages of the source.

How the values were obtained:
[1] = tested on: tubulin; details: cited from earlier work
[2] = tested on: CYP 3A4; details: CYP 3A4 in humans; cited from earlier work
[3] = tested on: CSC-enriched (CD133++) HCT-116 human colon cancer cell line; details: cited from earlier work
[4] = tested on: microtubules; details: cited from earlier work
[5] = tested on: MCF7-S human breast carcinoma; details: read-out: IC50 MCF7-S (breast); 72 h drug exposure; cited from earlier work
[6] = tested on: NCI/ADR multidrug-resistant human ovarian carcinoma; details: cited from earlier work; for R/S resistance factor: (IC50 NCI/ADR)/(IC50 MCF7-S); for IC50: read-out: IC50 NCI/ADR (ovarian), 72 h drug exposure
[7] = tested on: PANC-1 human pancreatic cancer cell line; details: read-out: IC50 PANC-1 (pancreatic); 72 h drug exposure; cited from earlier work
[8] = tested on: microtubule protein (tubulin); details: microtubule protein 1 mg/mL, 37 °C, Drug 10 μM; cited from earlier work
[9] = tested on: HT-29 human colon cancer cell line; details: read-out: IC50 HT-29 (colon); 72 h drug exposure; cited from earlier work
[10] = tested on: microtubules; assay: Binding to microtubules, fluorescent ligand displacement method; details: from Table 4
[11] = tested on: tubulin; assay: Critical concentration of tubulin for microtubule assembly; assay type: biochemical; details: from Table 3
[12] = tested on: CSC-enriched (CD133++) HCT-116 human colon cancer cell line; assay: Cytotoxicity against CSC-enriched HCT-116; assay type: cell-based; details: CSC-enriched HCT-116, from Table 2

Row | SMILES | IC50 [3] | IC50 [5] | R/S resistance factor [6] | IC50 [6] | also measured
1 | CC(=O)O[C@@]12CO[C@@H]1C[C@H](O)[C@@]1(C)C(=O)[C@H](OC(=O)C3CC3)C3=C(C)[C@@H](OC(=O)[C@H](O)[C@H](C=C(C)C)NC(=O)OC(C)(C)C)C[C@@](O)([C@@H](OC(=O)c4ccccc4)[C@H]21)C3(C)C [SB-T-1214] | 0.28 ± 0.1 nM | – | – | – | Critical concentration of tubulin required for microtubule assembly [1]: 0.9 ± 0.2 µM; Primary metabolism [2]: hydroxylation primarily at the two allylic methyl groups of the 3′-isobutenyl group; Binding constant with microtubules ([4]; 26 °C): 12±2 x10^7 M^−1; Binding constant with microtubules ([4]; 37 °C): 7±1 x10^7 M^−1
2 | CC(=O)O[C@@]12CO[C@@H]1C[C@H](O)[C@@]1(C)C(=O)[C@H](OC(=O)N(C)C)C3=C(C)[C@@H](OC(=O)[C@H](O)[C@H](C=C(C)C)NC(=O)OC(C)(C)C)C[C@@](O)([C@@H](OC(=O)c4ccccc4)C12)C3(C)C (some centres unmarked) [SB-T-1216] | 0.83 ± 0.05 nM | – | – | – | Primary metabolism [2]: hydroxylation primarily at the two allylic methyl groups of the 3′-isobutenyl group
3 | CC(=O)O[C@H]1C(=O)[C@@]2(C)C([C@H](OC(=O)c3cccc(N=[N+]=[N-])c3)[C@]3(O)C[C@H](OC(=O)[C@H](O)[C@H](C=C(F)F)NC(=O)OC(C)(C)C)C(C)=C1C3(C)C)[C@]1(OC(C)=O)CO[C@@H]1C[C@@H]2O (some centres unmarked) [SB-T-12851-3] | – | 0.092 nM | 3.7 | 0.34 nM | –
4 | CC(=O)O[C@H]1C(=O)[C@@]2(C)C([C@H](OC(=O)c3ccccc3)[C@]3(O)C[C@H](OC(=O)[C@H](O)[C@H](C=C(F)F)NC(=O)OC(C)(C)C)C(C)=C1C3(C)C)[C@]1(OC(C)=O)CO[C@@H]1C[C@@H]2O (some centres unmarked) [SB-T-12851] | – | 0.099 nM | 9.6 | 0.95 nM | IC50 [7]: 1.19 nM; Rate of GTP-independent tubulin polymerization [8]: much faster than paclitaxel; IC50 [9]: 0.41 nM
5 | COc1cccc(C(=O)O[C@H]2[C@@H]3[C@]4(OC(C)=O)CO[C@@H]4C[C@H](O)[C@@]3(C)C(=O)[C@H](OC(=O)C3CC3)C3=C(C)[C@@H](OC(=O)[C@H](O)[C@H](C=C(F)F)NC(=O)OC(C)(C)C)C[C@]2(O)C3(C)C)c1 [SB-T-12852-1] | – | 0.092 nM | 5.2 | 0.48 nM | –
6 | CC(=O)O[C@@]12CO[C@@H]1C[C@H](O)[C@@]1(C)C(=O)[C@H](OC(=O)C3CC3)C3=C(C)[C@@H](OC(=O)[C@H](O)[C@H](C=C(F)F)NC(=O)OC(C)(C)C)C[C@@](O)([C@@H](OC(=O)c4cccc(F)c4)[C@H]21)C3(C)C [SB-T-12852-2] | – | 0.071 nM | 24 | 1.72 nM | –
7 | CC(=O)O[C@@]12CO[C@@H]1C[C@H](O)[C@@]1(C)C(=O)[C@H](OC(=O)C3CC3)C3=C(C)[C@@H](OC(=O)[C@H](O)[C@H](C=C(F)F)NC(=O)OC(C)(C)C)C[C@@](O)([C@@H](OC(=O)c4cccc(N=[N+]=[N-])c4)[C@H]21)C3(C)C [SB-T-12852-3] | – | 0.092 nM | 4.9 | 0.45 nM | –
8 | CC(=O)O[C@@]12CO[C@@H]1C[C@H](O)[C@@]1(C)C(=O)[C@H](OC(=O)C3CC3)C3=C(C)[C@@H](OC(=O)[C@H](O)[C@H](C=C(F)F)NC(=O)OC(C)(C)C)C[C@@](O)([C@@H](OC(=O)c4ccccc4)[C@H]21)C3(C)C [SB-T-12852] | – | 0.12 nM | 50 | 6 nM | IC50 [7]: 5.85 nM; IC50 [9]: 0.85 nM
9 | CCC(=O)O[C@H]1C(=O)[C@@]2(C)C([C@H](OC(=O)c3ccccc3)[C@]3(O)C[C@H](OC(=O)[C@H](O)[C@H](C=C(F)F)NC(=O)OC(C)(C)C)C(C)=C1C3(C)C)[C@]1(OC(C)=O)CO[C@@H]1C[C@@H]2O (some centres unmarked) [SB-T-12853] | – | 0.12 nM | 10 | 1.2 nM | IC50 [7]: 0.65 nM; Rate of GTP-independent tubulin polymerization [8]: much faster than paclitaxel; IC50 [9]: 0.34 nM
10 | CC(=O)O[C@@]12CO[C@@H]1C[C@H](O)[C@@]1(C)C(=O)[C@H](OC(=O)N(C)C)C3=C(C)[C@@H](OC(=O)[C@H](O)[C@H](C=C(F)F)NC(=O)OC(C)(C)C)C[C@@](O)([C@@H](OC(=O)c4ccccc4)C12)C3(C)C (some centres unmarked) [SB-T-12854] | 0.14 ± 0.05 nM | 0.13 nM | 33 | 4.3 nM | Critical concentration of tubulin required for microtubule assembly [1]: 0.3 ± 0.1 µM; IC50 [7]: 1.58 nM; times stronger binding to microtubules than paclitaxel [10]: ca. 10 times; Potency in inducing tubulin assembly relative to SB-T-1214 [11]: three times higher potency than SB-T-1214; Rate of GTP-independent tubulin polymerization [8]: much faster than paclitaxel; Binding constant with microtubules ([4]; 26 °C): 15±3 x10^7 M^−1; Binding constant with microtubules ([4]; 37 °C): 10±1 x10^7 M^−1; times higher potency than conventional anticancer drugs [12]: 230-33,000 times; IC50 [9]: 0.46 nM
11 | COC(=O)O[C@H]1C(=O)[C@@]2(C)C([C@H](OC(=O)c3cccc(OC)c3)[C@]3(O)C[C@H](OC(=O)[C@H](O)[C@H](C=C(F)F)NC(=O)OC(C)(C)C)C(C)=C1C3(C)C)[C@]1(OC(C)=O)CO[C@@H]1C[C@@H]2O (some centres unmarked) [SB-T-12855-1] | – | 0.078 nM | 6.4 | 0.5 nM | –
12 | COC(=O)O[C@H]1C(=O)[C@@]2(C)C([C@H](OC(=O)c3cccc(N=[N+]=[N-])c3)[C@]3(O)C[C@H](OC(=O)[C@H](O)[C@H](C=C(F)F)NC(=O)OC(C)(C)C)C(C)=C1C3(C)C)[C@]1(OC(C)=O)CO[C@@H]1C[C@@H]2O (some centres unmarked) [SB-T-12855-3] | – | 0.078 nM | 5.3 | 0.4 nM | –
13 | COC(=O)O[C@H]1C(=O)[C@@]2(C)C([C@H](OC(=O)c3cccc(Cl)c3)[C@]3(O)C[C@H](OC(=O)[C@H](O)[C@H](C=C(F)F)NC(=O)OC(C)(C)C)C(C)=C1C3(C)C)[C@]1(OC(C)=O)CO[C@@H]1C[C@@H]2O (some centres unmarked) [SB-T-12855-4] | – | 0.099 nM | 12 | 1.16 nM | –
14 | N.N.[Cl][Pt][Cl] [cisplatin] | 4540 nM | – | – | – | –
15 | COc1cccc2c1C(=O)c1c(O)c3c(c(O)c1C2=O)C[C@@](O)(C(=O)CO)C[C@@H]3O[C@H]1C[C@H](N)[C@H](O)[C@H](C)O1 [doxorubicin] | 78 ± 28.2 nM | – | – | – | –
16 | CN(Cc1cnc2nc(N)nc(N)c2n1)c1ccc(C(=O)N[C@@H](CCC(=O)O)C(=O)O)cc1 [methotrexate] | 32.7 ± 11.2 nM | – | – | – | –
17 | CC(=O)O[C@H]1C(=O)[C@@]2(C)[C@H]([C@H](OC(=O)c3ccccc3)[C@]3(O)C[C@H](OC(=O)[C@H](O)[C@@H](NC(=O)c4ccccc4)c4ccccc4)C(C)=C1C3(C)C)[C@]1(OC(C)=O)CO[C@@H]1C[C@@H]2O [paclitaxel, reference compound] | 33.8 ± 3.33 nM | 1.2 nM | 250 | 300 nM | IC50 [7]: 25.7 nM; IC50 [9]: 3.6 nM
18 | CC[C@@]1(O)C(=O)OCc2c1cc1n(c2=O)Cc2cc3c(CN(C)C)c(O)ccc3nc2-1 [topotecan] | 451 ± 12 nM | – | – | – | –
